Assay [1] relates to IRF pathway. Description: Reporter gene expression assay in THP1-Dual cells, IRF axis (secreted Lucia luciferase). The note with it: 20 hr stimulation, EC50 range class, read-out: THP-IRF activity. In kind it is cell-based, human. On the procedure:
(§1) THP1-Dual™ cells (Invivogen) were derived from the human THP-1 monocyte cell line by stable integration of two inducible reporter constructs. As a result, THP1-Dual™ cells allow the simultaneous study of the NF-κB pathway, by monitoring the activity of secreted SEAP, and the IRF pathway, by assessing the activity of a secreted luciferase (Lucia). 5×10^5 THP1-Dual™ cells were seeded in 384-well plates in growth medium and stimulated with novel compounds. After 20 hr of stimulation supernatants were removed and reporter proteins were readily measured in the cell culture supernatant using QUANTI-Blue™ (Invivogen), a SEAP detection reagent, and QUANTI-Luc™ (Invivogen), a luciferase detection reagent on a Spectramax i3X luminometer.
(§2) EC50 value ranges for exemplary compounds tested in the above assay are given.
In general terms: A reporter such as luciferase makes a cellular process visible.

For assay [2], the system named is NF-κB pathway. The assay can be described thus: Reporter gene expression assay in THP1-Dual cells, NFkB axis (secreted SEAP). The format is cell-based, human. As to conditions: 20 hr stimulation, EC50 range class, read-out: THP-NFκB activity. How it is done:
as §1, §2

Assay [3] concerns the target hSTING(HAQ) (Homo sapiens, UniProt Q86WV6, G230A/H232R/R293Q/R71H). Description: Luciferase reporter assay in HEK293T-hSTING-Luciferase cells, HAQ polymorph. In kind it is cell-based. The note with it: HAQ polymorph of human STING, EC50 range class. An excerpt:
(§3) Stable Cell Line Generation • a) Stable STING expressing cells—Stable HEK293T STING-expressing cell lines were generated using plasmids purchased from Invivogen, CA, USA, that contain STING cDNA cloned into the pUNO-1 vector under hEF1-HTLV promoter and containing the Blasticidin selection cassette. The plasmids hSTING(R232), hSTING(H232), hSTING(HAQ) were directly procured from Invivogen while hSTING (AQ) and hSTING (Q) were derived from hSTING(HAQ) and hSTING (R232) plasmids respectively by using a PCR based site directed mutagenesis method. These vectors were individually transfected into HEK293T cells using Lipofectamine (Invitrogen) and transfected cells were selected under Blasticidin selection. These transfected cells were further subjected to clonal selection using the limiting dilution method to obtain clonally pure populations of HEK cells transfected with each of the above mentioned human STING variants. Only those clones were selected in which ligand independent activation of STING was minimal. • b) Stable Luciferase reporter gene expressing cells—Stable HEK293T Luciferase reporter gene expressing cell lines were generated using pCDNA4 plasmids under an IRF-inducible promoter. This promoter is comprised of five tandem interferon-stimulated response elements (ISRE) fused to an ISG54 minimal promoter. This vector was transfected into HEK293T cells using Lipofectamine (Invitrogen) and transfected cells were selected under Zeocin selection. These transfected cells were further subjected to clonal selection using the limiting dilution method to obtain clonally pure populations of HEK cells transfected the Luciferase reporter construct. Only those clones were selected in which ligand independent induction of luciferase was minimal.
(§4) 5×10^5 clonally selected HEK293T-hSTING-Luciferase cells were seeded in 384-well plates in growth medium and stimulated with novel compounds. After 20 hr of stimulation supernatant were removed and secretary reporter gene activity were measured using the Quanti-Luc detection system (Invivogen) on a Spectramax i3X luminometer.
(§5) In the tables below, EC50 value ranges for exemplary compounds are given.
(§6) Single nucleotide polymorphisms of human STING have been described, which can affect the functional potency of compounds that modulate the activity of the STING protein (see Yi et. al., PLoS One, October 2013, 8(10), e77846). The 5 major polymorphisms of human STING are shown in FIG. 1, with their prevalence in human populations indicated.
(§7) The tables below show the potency of selected compounds of the invention against the most common polymorphisms.

Assay [4] concerns the target hSTING(R232) (Homo sapiens, UniProt Q86WV6, H232R). The assay can be described thus: Luciferase reporter assay in HEK293T-hSTING-Luciferase cells, R232 (wild type) human STING. The note with it: 20 hr stimulation, read-out: R232 human activity (EC50 range). In kind it is cell-based. Summed up:
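Clonal HEK293T cells stably expressing STING from a pUNO-1 plasmid plus an ISRE/ISG54-driven secreted luciferase reporter; 5×10^5 cells stimulated with compound for 20 hr. Supernatant luciferase read by luminescence, giving fold-induction over baseline and EC50.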

In assay [5] the target is hSTING(H232) (Homo sapiens, UniProt Q86WV6). The assay can be described thus: Luciferase reporter assay in HEK293T-hSTING-Luciferase cells, H232/REF polymorph. In kind it is cell-based. As to conditions: H232/REF polymorph of human STING, EC50 range class.
Excerpt: as §3, §4, §5, §6, §7

pEC50: −log10 of the molar value. Counter-ions that a name gives are not always drawn. Like-named read-outs stand apart in the source and are kept apart here.

hSTING(H232), sequence (Q86WV6 whole entry): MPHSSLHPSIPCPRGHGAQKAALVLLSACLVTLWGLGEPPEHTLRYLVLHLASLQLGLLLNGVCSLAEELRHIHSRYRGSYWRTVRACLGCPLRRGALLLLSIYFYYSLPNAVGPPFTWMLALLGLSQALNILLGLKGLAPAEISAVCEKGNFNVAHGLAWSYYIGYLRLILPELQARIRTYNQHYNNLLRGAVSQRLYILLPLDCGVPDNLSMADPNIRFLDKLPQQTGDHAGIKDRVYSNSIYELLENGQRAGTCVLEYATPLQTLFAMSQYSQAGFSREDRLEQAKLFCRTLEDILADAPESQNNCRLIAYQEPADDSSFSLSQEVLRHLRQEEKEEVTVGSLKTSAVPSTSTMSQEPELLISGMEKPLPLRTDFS
hSTING(HAQ), sequence (Q86WV6 whole entry R71H/G230A/H232R/R293Q): as the sequence (Q86WV6 whole entry) above, with R71H, G230A, H232R, R293Q counted along it
hSTING(R232), sequence (Q86WV6 whole entry H232R): as the sequence (Q86WV6 whole entry) above, with H232R counted along it

As for `C[C@H]1c2ccc(C(=O)NCc3c(F)cc(F)cc3F)cc2N(Cc2c(F)cccc2NCCO)C(=O)N1C` [Example 264, (S)-1-(2-fluoro-6-((2-hydroxyethyl)amino)benzyl)-3,4-dimethyl-2-oxo-N-(2,4,6-trifluorobenzyl)-1,2,3,4-tetrahydroquinazoline-7-carboxamide hydrochloride], the pEC50 was 5.00 to 6.00 in assay [1] (Homo sapiens); 5.00 to 6.00 in assay [2] (Homo sapiens); 5.00 to 6.00 in assay [3]; more than 6.00 in assay [4]; more than 6.00 in assay [5].
With `Cc1cc(CN2C(=O)N(C)Cc3ccc(C(=O)NCc4c(F)cc(F)cc4F)cc32)on1` [Example 54, 3-methyl-1-((3-methylisoxazol-5-yl)methyl)-2-oxo-N-(2,4,6-trifluorobenzyl)-1,2,3,4-tetrahydroquinazoline-7-carboxamide], the pEC50 in assay [1] (Homo sapiens), in assay [2] (Homo sapiens), in assay [3], in assay [4] and in assay [5] was 5.00 to 6.00 in each case.
As to `CC1c2ccc(C(=O)NCc3c(F)cc(F)cc3F)cc2N(Cc2cc(C(N)=O)ccc2F)C(=O)N1C` (stereo not shown) [Example 167, 1-(5-carbamoyl-2-fluorobenzyl)-3,4-dimethyl-2-oxo-N-(2,4,6-trifluorobenzyl)-1,2,3,4-tetrahydroquinazoline-7-carboxamide], the pEC50 was less than 5.00 in assay [1] (Homo sapiens); less than 5.00 in assay [2] (Homo sapiens); less than 5.00 in assay [3]; more than 6.00 in assay [4]; less than 5.00 in assay [5].
Take `Cc1ncc(CN2C(=O)N(C)Cc3ccc(C(=O)NCc4c(F)cc(F)cc4F)cc32)s1` [Example 20, 3-methyl-1-((2-methylthiazol-5-yl)methyl)-2-oxo-N-(2,4,6-trifluorobenzyl)-1,2,3,4-tetrahydroquinazoline-7-carboxamide]: the pEC50 in assay [1] (Homo sapiens), in assay [2] (Homo sapiens), in assay [3], in assay [4] and in assay [5] was 5.00 to 6.00 in each case.
In the case of `Cc1ccc(F)c(CN2C(=O)N(C)C(C)c3ccc(C(=O)NCc4c(F)cc(F)cc4F)cc32)n1` (stereo not shown) [Example 238, 1-((3-fluoro-6-methylpyridin-2-yl)methyl)-3,4-dimethyl-2-oxo-N-(2,4,6-trifluorobenzyl)-1,2,3,4-tetrahydroquinazoline-7-carboxamide], the pEC50 was 5.00 to 6.00 in assay [1] (Homo sapiens); 5.00 to 6.00 in assay [2] (Homo sapiens); 5.00 to 6.00 in assay [3]; more than 6.00 in assay [4]; 5.00 to 6.00 in assay [5].
In the case of `C[C@H]1c2ccc(C(=O)NCc3c(F)cc(F)cc3F)cc2N(Cc2ccc(N)cc2)C(=O)N1C` [Example 243, (S)-1-(4-aminobenzyl)-3,4-dimethyl-2-oxo-N-(2,4,6-trifluorobenzyl)-1,2,3,4-tetrahydroquinazoline-7-carboxamide], the pEC50 in assay [1] (Homo sapiens) was less than 5.00; in assay [2] (Homo sapiens), less than 5.00; in assay [3], 5.00 to 6.00; in assay [4] it was 5.00 to 6.00; in assay [5] it was 5.00 to 6.00.
`Cc1cccc(-c2nc(CN3C(=O)N(C)Cc4ccc(C(=O)NCc5c(F)cc(F)cc5F)cc43)c(C)o2)c1` [Example 38, 3-methyl-1-((5-methyl-2-(m-tolyl)oxazol-4-yl)methyl)-2-oxo-N-(2,4,6-trifluorobenzyl)-1,2,3,4-tetrahydroquinazoline-7-carboxamide]: the pEC50 in assay [1] (Homo sapiens) is less than 5.00; in assay [2] (Homo sapiens), 5.00 to 6.00; in assay [3] it was 5.00 to 6.00; in assay [4], more than 6.00; in assay [5], 5.00 to 6.00.
In the case of `C[C@H]1c2ccc(C(=O)NCc3c(F)cc(F)cc3F)cc2N(Cc2ccc(N=[N+]=[N-])cc2)C(=O)N1C` [Example 239, (S)-1-(4-azidobenzyl)-3,4-dimethyl-2-oxo-N-(2,4,6-trifluorobenzyl)-1,2,3,4-tetrahydroquinazoline-7-carboxamide], the pEC50 was 5.00 to 6.00 in assay [1] (Homo sapiens); 5.00 to 6.00 in assay [2] (Homo sapiens); 5.00 to 6.00 in assay [3]; more than 6.00 in assay [4]; 5.00 to 6.00 in assay [5].
Consider `Cc1cccc(F)c1CN1C(=O)N(C)C(C)c2ccc(C(=O)NCc3c(F)cc(F)cc3F)cc21` (stereo not shown) [Example 203, 1-(2-fluoro-6-methylbenzyl)-3,4-dimethyl-2-oxo-N-(2,4,6-trifluorobenzyl)-1,2,3,4-tetrahydroquinazoline-7-carboxamide], for which the pEC50 in assay [1], in assay [2], in assay [3], in assay [4] and in assay [5] was more than 6.00 in each case.
As to `C[C@H]1c2ccc(C(=O)NCc3c(F)cc(F)cc3F)cc2N(Cc2ncccc2F)C(=O)N1C` [Example 227, (S)-1-((3-fluoropyridin-2-yl)methyl)-3,4-dimethyl-2-oxo-N-(2,4,6-trifluorobenzyl)-1,2,3,4-tetrahydroquinazoline-7-carboxamide], the pEC50 was 5.00 to 6.00 in assay [1] (Homo sapiens); 5.00 to 6.00 in assay [2] (Homo sapiens); 5.00 to 6.00 in assay [3]; more than 6.00 in assay [4]; 5.00 to 6.00 in assay [5].
For the compound `COC(=O)c1ccc(F)c(CN2C(=O)N(C)[C@@H](C)c3ccc(C(=O)NCc4c(F)cc(F)cc4F)cc32)c1Cl` [Example 185, (S)-methyl 2-chloro-3-((3,4-dimethyl-2-oxo-7-((2,4,6-trifluorobenzyl)carbamoyl)-3,4-dihydroquinazolin-1(2H)-yl)methyl)-4-fluorobenzoate], the pEC50 is 5.00 to 6.00 in assay [1] (Homo sapiens); 5.00 to 6.00 in assay [2] (Homo sapiens); more than 6.00 in assay [3]; more than 6.00 in assay [4]; more than 6.00 in assay [5].
Turning to `COc1cccc(F)c1CN1C(=O)N(C)C(C)c2ccc(C(=O)NCc3c(F)cc(F)cc3F)cc21` (stereo not shown) [Example 153, 1-(2-fluoro-6-methoxybenzyl)-3,4-dimethyl-2-oxo-N-(2,4,6-trifluorobenzyl)-1,2,3,4-tetrahydroquinazoline-7-carboxamide], the pEC50 in assay [1] (Homo sapiens), in assay [2] (Homo sapiens), in assay [3], in assay [4] and in assay [5] was more than 6.00 throughout.
For `C[C@H]1c2ccc(C(=O)NCc3c(F)cc(F)cc3F)cc2N(Cc2c(N)ccc(F)c2F)C(=O)N1C` [Example 285, (S)-1-(6-amino-2,3-difluorobenzyl)-3,4-dimethyl-2-oxo-N-(2,4,6-trifluorobenzyl)-1,2,3,4-tetrahydroquinazoline-7-carboxamide], the pEC50 in assay [1] (Homo sapiens), in assay [2] (Homo sapiens), in assay [3], in assay [4] and in assay [5] was more than 6.00 each time.
Take `CNc1cccc(F)c1CN1C(=O)N(C)C(C)c2ccc(C(=O)NCc3c(F)cc(F)cc3F)cc21` (stereo not shown) [Example 174, 1-(2-fluoro-6-(methylamino)benzyl)-3,4-dimethyl-2-oxo-N-(2,4,6-trifluorobenzyl)-1,2,3,4-tetrahydroquinazoline-7-carboxamide]: the pEC50 is 5.00 to 6.00 in assay [1] (Homo sapiens); 5.00 to 6.00 in assay [2] (Homo sapiens); more than 6.00 in assay [3]; more than 6.00 in assay [4]; more than 6.00 in assay [5].

The values are drawn from patent US11571423B2, “Small molecule modulators of human sting” (Curadev Pharma Limited, priority 2017, dated 2023).
